Laboratory results from patent US10208015B2, “Aryl-triazolyl pyridines as pest control agents” (BAYER ANIMAL HEALTH GMBH, priority 2014, dated 2019).
Where two headings read alike, the source gives them in different places.

Key:
[1] = tested on: Boophilus microplus; assay: Boophilus microplus injection test; type: in vivo; conditions: application rate 20 μg/animal, assessed after 7 days
Protocol: Boophilus microplus—Injection Test • Solvent: dimethyl sulphoxide […] The animals are transferred into dishes and kept in a climate-controlled room. Efficacy is assessed after 7 days by laying of fertile eggs. Eggs which are not visibly fertile are stored in a climate-controlled cabinet until the larvae hatch after about 42 days.

[2] = tested on: Ctenocephalides felis; assay: Ctenocephalides felis oral test; type: in vivo; conditions: application rate 100 ppm in citrated cattle blood, after 2 days
Source text: Ctenocephalides felis—Oral Test • Solvent: dimethyl sulphoxide […] Dilution with citrated cattle blood gives the desired concentration. About 20 unfed adult cat fleas (Ctenocephalides felis) are placed into a chamber which is closed at the top and bottom with gauze. A metal cylinder whose bottom end is closed with parafilm is placed onto the chamber. The cylinder contains the blood/active compound preparation, which can be imbibed by the fleas through the parafilm membrane.

[3] = logP by HPLC on reversed-phase column (C18), EEC Directive 79/831 Annex V.A8; type: physicochemical; conditions: for logP: HPLC, C18, acetonitrile (0.1% formic acid)/water (0.09% formic acid) gradient
[4] = tested on: Lucilia cuprina; assay: Lucilia cuprina test; type: in vivo; conditions: application rate 100 ppm, L1 larvae, after 2 days
Protocol: (§1) • Solvent: dimethyl sulphoxide
(§2) To produce a suitable preparation of active compound, 10 mg of active compound are mixed with 0.5 ml of dimethyl sulphoxide, and the concentrate is diluted with water to the desired concentration.
About 20 L1 larvae of the Australian sheep blowfly (Lucilia cuprina) are transferred into a test vessel containing minced horsemeat and the active compound preparation of the desired concentration.
After 2 days, the kill in % is determined. 100% means that all the larvae have been killed; 0% means that no larvae have been killed.

[5] = tested on: Musca domestica; assay: Musca domestica test; type: in vivo; conditions: application rate 100 ppm, adult houseflies, after 2 days
Protocol: as §1, §2
Vessels containing a sponge treated with sugar solution and the active compound preparation of the desired concentration are populated with 10 adult houseflies (Musca domestica).
After 2 days, the kill in % is determined. 100% means that all of the flies have been killed; 0% means that none of the flies have been killed.

SMILES | efficacy (laying of fertile eggs) [1] | efficacy (kill in %) [2] | logP [3] | efficacy (kill in %) [4] | log P (HPLC-MS) ([3]; HPLC-MS method a)) | log P (HPLC-MS) [3] | efficacy (kill in %) [5]
O=C(NCC(F)(F)F)c1cc(-c2cn(-c3c(Cl)cc(-c4ccccc4)cc3Cl)nn2)cnc1Cl [Example 28] | 100% | 100% | 3.9 |  |  |  | 
CN(C(=O)c1cc(-c2cn(-c3c(Cl)cc(C(F)(C(F)(F)F)C(F)(F)F)cc3OC(F)F)nn2)cnc1Cl)C1CC1 [Example 37] |  |  | 4.2 |  |  |  | 
CCc1cc(C(F)(C(F)(F)F)C(F)(F)F)cc(C)c1-n1cc(-c2cnc(Cl)c(C(=O)NCC(F)(F)F)c2)nn1 [Example 23] | 100% | 100% | 4.5 | 100% |  |  | 
CCc1cc(C(F)(C(F)(F)F)C(F)(F)F)cc(Cl)c1N [2-chloro-6-ethyl-4-heptafluoroisopropylaniline] |  |  |  |  | 4.67 |  | 
O=C(NC1CC1)c1cc(-c2cn(-c3c(Cl)cc(-c4ccccc4)cc3Cl)nn2)cnc1Cl [Example 32] | 100% | 100% | 3.5 | 100% |  |  | 
Cc1cc(C(F)(C(F)(F)F)C(F)(F)F)cc(C(F)(F)F)c1N [4-heptafluoroisopropyl-2-methyl-6-trifluoromethylaniline] |  |  |  |  | 4.67 |  | 
CCNC(=O)c1cc(-c2cn(-c3c(Cl)cc(-c4ccccc4)cc3Cl)nn2)cnc1Cl [Example 30] | 100% | 100% | 3.5 | 100% |  |  | 
CCc1cc(C(F)(C(F)(F)F)C(F)(F)F)cc(Br)c1N [2-bromo-6-ethyl-4-heptafluoroisopropylaniline] |  |  |  |  |  | 4.38 | 
CCc1cc(C(F)(C(F)(F)F)C(F)(F)F)cc(C)c1-n1cc(-c2cnc(Cl)c(C(=O)NC(C)C)c2)nn1 [Example 24] | 100% | 100% | 4.4 |  |  |  | 
N#CC1(NC(=O)c2cc(-c3cn(-c4c(Cl)cc(C(F)(C(F)(F)F)C(F)(F)F)cc4OC(F)F)nn3)cnc2Cl)CC1 [Example 38] |  |  | 3.7 |  |  |  | 
Cc1cc(C(F)(C(F)(F)F)C(F)(F)F)cc(Br)c1-n1cc(-c2cnc(Cl)c(C(=O)NCC(F)(F)F)c2)nn1 [Example 26] | 100% | 100% | 4.3 | 100% |  |  | 100%
CC(C)NC(=O)c1cc(-c2cn(-c3c(Cl)cc(-c4ccccc4)cc3Cl)nn2)cnc1Cl [Example 29] | 100% |  | 3.8 |  |  |  | 
COc1ncc(-c2cn(-c3c(Cl)cc(C(F)(C(F)(F)F)C(F)(F)F)cc3Cl)nn2)cc1C(=O)NC1CC1 [Example 10] | 100% | 100% | 4.4 | 95% |  |  | 
O=C(NC1CC1)c1cc(-c2cn(-c3c(Cl)cc(C(F)(C(F)(F)F)C(F)(F)F)cc3OC(F)F)nn2)cnc1Cl [Example 36] |  |  | 3.7 |  |  |  | 
CN(C(=O)c1cc(-c2cn(-c3c(Cl)cc(-c4ccccc4)cc3Cl)nn2)cnc1Cl)C1CC1 [Example 31] | 100% | 100% | 4.0 | 100% |  |  | 
